Read-outs that look alike come from different tables or passages of the source.
Experiments:
EBOV = details: cited from earlier work
HIV-1/EBOV pseudovirus [1] = experiment: microbe, parasite or virus in culture; details: Zaire ebolavirus, A549, read-out: IC50 (anti-HIV-1/EBOV)
HIV-1/H5N1 pseudovirus = experiment: organism not typed; type: cell-based, influenza A virus A/Goose/Qinghai/59/05 (H5N1); details: for inhibition at 10 µM: A549, 48 h, read-out: Inhibition HIV-1/H5N1; for Inhibition HIV/H5N1: 10 µM
in vitro = details: human
HIV-1/EBOV pseudovirus [2] = details: for Inhibition HIV/EBOV: 10 µM
HIV-1/LASV pseudovirus = experiment: microbe, parasite or virus in culture; type: cell-based; details: for inhibition at 10 µM: Human immunodeficiency virus 1, A549, 48 h, read-out: Inhibition HIV-1/LASV; for Inhibition HIV/LASV: 10 µM
HIV-1/EBOV pseudovirus [3] = experiment: organism not typed; details: A549, 48 h, read-out: Inhibition HIV-1/EBOV
A549 cells = details: 10 µM
[4] = system: EBOV Mayinga isolate (EBOV-GFP); experiment: microbe, parasite or virus in culture; type: cell-based, Ebola virus; details: for IC50: read-out: IC50 against replication of infectious EBOV
Ebola glycoprotein = details: cited from earlier work

Compound	IC50 (HIV-1/EBOV pseudovirus [1]) [µM]	inhibition at 10 µM (HIV-1/H5N1 pseudovirus) [%]	CC50 (in vitro) [µM]	viability at 10 µM (in vitro) [%]	SI (CC50/IC50) (HIV-1/EBOV pseudovirus [2])	inhibition at 10 µM (HIV-1/LASV pseudovirus) [%]	inhibition at 10 µM (HIV-1/EBOV pseudovirus [3]) [%]	Inhibition HIV/H5N1 (HIV-1/H5N1 pseudovirus) [%]	Cell Viability (A549 cells) [%]	Inhibition HIV/EBOV (HIV-1/EBOV pseudovirus [2]) [%]	Inhibition HIV/LASV (HIV-1/LASV pseudovirus) [%]	further results
COc1ccc(S(=O)(=O)N(CC(=O)Nc2ccccc2-c2ccccc2)c2ccc(C)cc2)cc1 [MBX 2254]												IC90 (EBOV): 3 µM
COc1nc2ccc(Br)cc2cc1C(O)(CCc1ccccc1)c1ccccc1CN(C)C (stereo not drawn) [SYL1654]	4.98	8.04	222	94.7	44.7	18.8	84.8					
CCN(CC)CC(=O)NCc1cc(-c2ccc(I)cc2)no1 [3,5-Disubstituted isoxazole]												IC50 (EBOV): 2.5 µM
Brc1ccc2nc(OCc3cccc4ccccc34)c(-c3cnn(C4CCCCO4)c3)cc2c1 (stereo not drawn) [SYL1658]	8.65	36.9	110	72.7	12.7	19.2	77.4					
COc1nc2ccccc2cc1C(O)(Cc1cccc(F)c1)c1ccccc1CN(C)C (stereo not drawn) [SYL1640]	2.96	-1.97	190	97.6	64.3	-15.1	79.1					
Brc1ccc2nc(OCc3cccc4ccccc34)c(-c3ccc(CNC45CC6CC(CC(C6)C4)C5)cc3)cc2c1 [SYL1683]	2.93	21.7	235	104	80.3	26.3	95.7					
COc1ccc(CC(O)(c2ccccc2CN(C)C)c2cc3cc(Br)ccc3nc2OC)cc1 (stereo not drawn) [SYL1655]	2.65	-17.2	132	95.3	49.9	28.9	90.3					
O=c1oc2c(O)c(O)cc3c(=O)oc4c(O)c(O)cc1c4c23 [Ellagic acid]												IC50 (EBOV): 1.4 µM
COc1cccc(COc2nc3ccc(Br)cc3cc2-c2cccc(CN(C)C)c2)c1 [SYL1657]	3.56	0.16	215	93.9	60.3	25.8	89.2					
FC(F)C(F)(F)C1=Nc2ccccc2N=C(c2ccccc2)C1 [benzodiazepine]												IC90 (EBOV): 3.5 µM
CN(C)Cc1ccc(-c2cc3cc(Br)ccc3nc2-n2ccnc2)cc1 [SYL1711]	4.11	38.3	242	90.7	58.9	25.5	98.7					
CN(C)Cc1ccc(-c2cc3cc(Br)ccc3nc2Oc2ccc(OCc3ccccc3)cc2)cc1 [SYL1698]								97.44	107.16	99.64	98.80	
CN(C)CCOc1nc2ccc(Br)cc2cc1-c1ccc(CN(C)C)cc1 [SYL1723]								98.10	68.89	99.81	97.12	
CN(C)Cc1ccc(-c2cc3cc(Br)ccc3nc2OCc2cccc3ccccc23)cc1 [SYL1665]								84.24	82.87	99.92	88.72	
CN(C)Cc1ccc(-c2cc3cc(Br)ccc3nc2OCc2c(F)cccc2F)cc1 [SYL1693]								97.66	3.19	99.59	99.04	
CN(C)Cc1ccc(-c2cc3cc(Br)ccc3nc2OCc2ccc(Cl)cc2)cc1 [SYL1712]	~1	5.75		96.9	225.9	55.4	99.4					selective index (SI) [4]: 37.2; IC50 ([4]; Zaire ebolavirus, HeLa, 24 h): 2 µM; IC50 [4]: 1.99 µM; IC50 (HIV-1/EBOV pseudovirus [2]; read-out: IC50 (anti-HIV-1/EBOV)): 0.95 µM
CN(C)Cc1cccc(-c2cc3cc(Br)ccc3nc2OCc2cccc3ccccc23)c1 [SYL1638]								98.27	18.62	99.91	99.18	
COc1nc2ccc(Br)cc2cc1C(c1ccccc1)C1(O)CCN(C)CC1 (stereo not drawn) [SYL1636]								97.70	4.08	99.39	98.04	
CN(C)Cc1ccc(-c2cc3ccccc3nc2OCc2cccc3ccccc23)cc1 [SYL1701]								98.51	88.01	99.94	97.96	
Fc1cccc(COc2nc3ccc(Br)cc3cc2-c2cccc(-c3ncco3)c2)c1 [SYL1650]								-15.72	81.60	99.92	87.63	
Brc1ccc2nc(OCc3cccc4ccccc34)c(-c3ccc(CN4CCOCC4)cc3)cc2c1 [SYL1708]								18.60	80.29	98.58	82.96	
COc1nc2ccccc2cc1C(c1ccccc1)C(O)(CC(=O)N(C)C)c1cccc2ccccc12 (stereo not drawn) [SYL1642]	5.21	14.1	152	72.3	29.2	35	92.2					
COc1nc2ccc(Br)cc2cc1C(c1ccccc1)N1CCN(C)c2ccccc21 (stereo not drawn) [SYL1628]								-5.51	86.44	99.91	86.50	
COC1=Nc2ccccc2C(C2(c3ccccc3)CCN(C)CC2)C1C(=O)c1ccccc1 (stereo not drawn) [SYL1660]	2.58	3.34	185	106	71.6	-26.6	97.5					
CN(C)CCOc1ccc(/C(=C(/CCCl)c2ccccc2)c2ccccc2)cc1 [Toremifene]												Kd (Ebola glycoprotein): 16 µM
CN(C)Cc1cccc(-c2cc3cc(Br)ccc3nc2Nc2cccc3ccccc23)c1 [SYL1656]								49.96	77.79	79.70	51.43	
CN(C)c1ncc2cc(-c3cc4cc(Br)ccc4nc3OCc3cccc4ccccc34)ccc2n1 [SYL1692]								-2.23	87.98	48.65	11.86	

From article PMC6315506 (Viruses, 2018)
